Measurements as given in ChEMBL document CHEMBL3885881, “DrugMatrix”.

Species: Rattus norvegicus
Assay: DrugMatrix - Regimen: Daily Repeat
Type: toxicity, organism-based, Sprague-Dawley
Parameters: regimen Daily Repeat, gender Male, age 6-8 weeks
Conditions: in vivo, po, route oral GAVAGE, vehicle 100 % WATER; for ABSOLUTE BASOPHIL / ABSOLUTE EOSINOPHIL / ABSOLUTE LYMPHOCYTE / ABSOLUTE MONOCYTE / ABSOLUTE SEGMENTED NEUTROPHIL / BASOPHIL / EOSINOPHIL / ERYTHROCYTE COUNT / HEMATOCRIT / HEMOGLOBIN / LEUKOCYTE COUNT / LYMPHOCYTE / MEAN CORPUSCULAR HEMOGLOBIN / MEAN CORPUSCULAR HEMOGLOBIN CONCENTRATION / MEAN CORPUSCULAR VOLUME / MONOCYTE / NEUTROPHIL / NUCLEATED RED BLOOD CELLS / PLATELET COUNT: tissue Blood; for ALANINE AMINOTRANSFERASE / ALBUMIN / ALKALINE PHOSPHATASE / ASPARTATE AMINOTRANSFERASE / BLOOD UREA NITROGEN / CARBON DIOXIDE / CHLORIDE / CHOLESTEROL / CREATINE PHOSPHOKINASE / CREATININE / GLUCOSE / LACTATE DEHYDROGENASE / LIPASE / PHOSPHORUS / POTASSIUM / SODIUM / TOTAL BILIRUBIN / TOTAL PROTEIN / URIC ACID: tissue Plasma
[1] = 14 mg/kg, 72 h, dose level Low, time 3 day
[2] = 14 mg/kg, 120 h, dose level Low, time 5 day
[3] = 1500 mg/kg, 72 h, dose level High, time 3 day
[4] = 1500 mg/kg, 120 h, dose level High, time 5 day

Structure (SMILES): CN(C)[C@@H]1C(O)=C(C(N)=O)C(=O)[C@@]2(O)C(O)=C3C(=O)c4c(O)cccc4[C@@](C)(O)[C@H]3[C@H](O)[C@@H]12 [OXYTETRACYCLINE]
- ABSOLUTE BASOPHIL [1]: 0 CELLS/uL
- ABSOLUTE EOSINOPHIL [1]: 0 CELLS/uL
- ABSOLUTE LYMPHOCYTE [1]: 14072 CELLS/uL
- ABSOLUTE MONOCYTE [1]: 56.33 CELLS/uL
- ABSOLUTE SEGMENTED NEUTROPHIL [1]: 1938.33 CELLS/uL
- BASOPHIL [1]: 0%
- EOSINOPHIL [1]: 0%
- ERYTHROCYTE COUNT [1]: 5.7 x10E6/uL
- HEMATOCRIT [1]: 36.73%
- HEMOGLOBIN [1]: 14.4 G/DL
- LEUKOCYTE COUNT [1]: 16.07 x10E3/uL
- LYMPHOCYTE [1]: 87.67%
- MEAN CORPUSCULAR HEMOGLOBIN [1]: 25.27 pg
- MEAN CORPUSCULAR HEMOGLOBIN CONCENTRATION [1]: 39.27 G/DL
- MEAN CORPUSCULAR VOLUME [1]: 64.4 fL
- MONOCYTE [1]: 0.33%
- NEUTROPHIL [1]: 12%
- NUCLEATED RED BLOOD CELLS [1]: 0.33 /100WBC
- PLATELET COUNT [1]: 1430 x10E3/uL
- ALANINE AMINOTRANSFERASE [1]: 53.67 u/L
- ALBUMIN [1]: 4.57 G/DL
- ALKALINE PHOSPHATASE [1]: 372 u/L
- ASPARTATE AMINOTRANSFERASE [1]: 89.33 u/L
- BLOOD UREA NITROGEN [1]: 16.33 mg/dL
- CARBON DIOXIDE [1]: 26.67 mmol/L
- CHLORIDE [1]: 103.67 MEQ/L
- CHOLESTEROL [1]: 85.33 mg/dL
- CREATINE PHOSPHOKINASE [1]: 211.67 u/L
- CREATININE [1]: 0.27 mg/dL
- GLUCOSE [1]: 165 mg/dL
- LACTATE DEHYDROGENASE [1]: 160 u/L
- LIPASE [1]: 10 u/L
- PHOSPHORUS [1]: 13.07 mg/dL
- POTASSIUM [1]: 7.37 MEQ/L
- SODIUM [1]: 146.77 MEQ/L
- TOTAL BILIRUBIN [1]: 0.23 mg/dL
- TOTAL PROTEIN [1]: 6.17 G/DL
- URIC ACID [1]: 1.9 mg/dL
- ABSOLUTE BASOPHIL [2]: 0 CELLS/uL
- ABSOLUTE EOSINOPHIL [2]: 0 CELLS/uL
- ABSOLUTE LYMPHOCYTE [2]: 12168.33 CELLS/uL
- ABSOLUTE MONOCYTE [2]: 40 CELLS/uL
- ABSOLUTE SEGMENTED NEUTROPHIL [2]: 991.67 CELLS/uL
- BASOPHIL [2]: 0%
- EOSINOPHIL [2]: 0%
- ERYTHROCYTE COUNT [2]: 5.46 x10E6/uL
- HEMATOCRIT [2]: 35.43%
- HEMOGLOBIN [2]: 14.23 G/DL
- LEUKOCYTE COUNT [2]: 13.2 x10E3/uL
- LYMPHOCYTE [2]: 92%
- MEAN CORPUSCULAR HEMOGLOBIN [2]: 26.03 pg
- MEAN CORPUSCULAR HEMOGLOBIN CONCENTRATION [2]: 40.13 G/DL
- MEAN CORPUSCULAR VOLUME [2]: 64.83 fL
- MONOCYTE [2]: 0.33%
- NEUTROPHIL [2]: 7.67%
- NUCLEATED RED BLOOD CELLS [2]: 0 /100WBC
- PLATELET COUNT [2]: 1202.33 x10E3/uL
- ALANINE AMINOTRANSFERASE [2]: 48.67 u/L
- ALBUMIN [2]: 4.47 G/DL
- ALKALINE PHOSPHATASE [2]: 399.33 u/L
- ASPARTATE AMINOTRANSFERASE [2]: 88 u/L
- BLOOD UREA NITROGEN [2]: 16.67 mg/dL
- CARBON DIOXIDE [2]: 26.33 mmol/L
- CHLORIDE [2]: 102 MEQ/L
- CHOLESTEROL [2]: 69.33 mg/dL
- CREATINE PHOSPHOKINASE [2]: 216.67 u/L
- CREATININE [2]: 0.2 mg/dL
- GLUCOSE [2]: 150.33 mg/dL
- LACTATE DEHYDROGENASE [2]: 200.67 u/L
- LIPASE [2]: 9 u/L
- PHOSPHORUS [2]: 14.23 mg/dL
- POTASSIUM [2]: 7.61 MEQ/L
- SODIUM [2]: 147.57 MEQ/L
- TOTAL BILIRUBIN [2]: 0.17 mg/dL
- TOTAL PROTEIN [2]: 6.43 G/DL
- URIC ACID [2]: 2.1 mg/dL
- ABSOLUTE BASOPHIL [3]: 0 CELLS/uL
- ABSOLUTE EOSINOPHIL [3]: 0 CELLS/uL
- ABSOLUTE LYMPHOCYTE [3]: 13408.67 CELLS/uL
- ABSOLUTE MONOCYTE [3]: 33.33 CELLS/uL
- ABSOLUTE SEGMENTED NEUTROPHIL [3]: 1491.33 CELLS/uL
- BASOPHIL [3]: 0%
- EOSINOPHIL [3]: 0%
- ERYTHROCYTE COUNT [3]: 5.4 x10E6/uL
- HEMATOCRIT [3]: 33.33%
- HEMOGLOBIN [3]: 13.33 G/DL
- LEUKOCYTE COUNT [3]: 14.93 x10E3/uL
- LYMPHOCYTE [3]: 90.67%
- MEAN CORPUSCULAR HEMOGLOBIN [3]: 24.7 pg
- MEAN CORPUSCULAR HEMOGLOBIN CONCENTRATION [3]: 40.03 G/DL
- MEAN CORPUSCULAR VOLUME [3]: 61.67 fL
- MONOCYTE [3]: 0.33%
- NEUTROPHIL [3]: 9%
- NUCLEATED RED BLOOD CELLS [3]: 0 /100WBC
- PLATELET COUNT [3]: 1276 x10E3/uL
- ALANINE AMINOTRANSFERASE [3]: 67 u/L
- ALBUMIN [3]: 4.17 G/DL
- ALKALINE PHOSPHATASE [3]: 287.67 u/L
- ASPARTATE AMINOTRANSFERASE [3]: 90.33 u/L
- BLOOD UREA NITROGEN [3]: 14 mg/dL
- CARBON DIOXIDE [3]: 30 mmol/L
- CHLORIDE [3]: 103 MEQ/L
- CHOLESTEROL [3]: 93 mg/dL
- CREATINE PHOSPHOKINASE [3]: 208.33 u/L
- CREATININE [3]: 0.2 mg/dL
- GLUCOSE [3]: 142.33 mg/dL
- LACTATE DEHYDROGENASE [3]: 267.67 u/L
- LIPASE [3]: 10 u/L
- PHOSPHORUS [3]: 13.33 mg/dL
- POTASSIUM [3]: 6.65 MEQ/L
- SODIUM [3]: 147.53 MEQ/L
- TOTAL BILIRUBIN [3]: 0.1 mg/dL
- TOTAL PROTEIN [3]: 5.63 G/DL
- URIC ACID [3]: 1.47 mg/dL
- ABSOLUTE BASOPHIL [4]: 0 CELLS/uL
- ABSOLUTE EOSINOPHIL [4]: 0 CELLS/uL
- ABSOLUTE LYMPHOCYTE [4]: 10152.67 CELLS/uL
- ABSOLUTE MONOCYTE [4]: 25.33 CELLS/uL
- ABSOLUTE SEGMENTED NEUTROPHIL [4]: 755.33 CELLS/uL
- BASOPHIL [4]: 0%
- EOSINOPHIL [4]: 0%
- ERYTHROCYTE COUNT [4]: 5.33 x10E6/uL
- HEMATOCRIT [4]: 34.37%
- HEMOGLOBIN [4]: 13.93 G/DL
- LEUKOCYTE COUNT [4]: 10.93 x10E3/uL
- LYMPHOCYTE [4]: 92.33%
- MEAN CORPUSCULAR HEMOGLOBIN [4]: 26.17 pg
- MEAN CORPUSCULAR HEMOGLOBIN CONCENTRATION [4]: 40.53 G/DL
- MEAN CORPUSCULAR VOLUME [4]: 64.53 fL
- MONOCYTE [4]: 0.33%
- NEUTROPHIL [4]: 7.33%
- NUCLEATED RED BLOOD CELLS [4]: 0.33 /100WBC
- PLATELET COUNT [4]: 1197.33 x10E3/uL
- ALANINE AMINOTRANSFERASE [4]: 58 u/L
- ALBUMIN [4]: 4.37 G/DL
- ALKALINE PHOSPHATASE [4]: 321.33 u/L
- ASPARTATE AMINOTRANSFERASE [4]: 83.33 u/L
- BLOOD UREA NITROGEN [4]: 16 mg/dL
- CARBON DIOXIDE [4]: 26.33 mmol/L
- CHLORIDE [4]: 100.33 MEQ/L
- CHOLESTEROL [4]: 75.67 mg/dL
- CREATINE PHOSPHOKINASE [4]: 222.33 u/L
- CREATININE [4]: 0.32 mg/dL
- GLUCOSE [4]: 138 mg/dL
- LACTATE DEHYDROGENASE [4]: 303 u/L
- LIPASE [4]: 11 u/L
- PHOSPHORUS [4]: 13.23 mg/dL
- POTASSIUM [4]: 6.84 MEQ/L
- SODIUM [4]: 146.1 MEQ/L
- TOTAL BILIRUBIN [4]: 0.1 mg/dL
- TOTAL PROTEIN [4]: 6.3 G/DL
- URIC ACID [4]: 1.47 mg/dL
